Test results taken from patent US12419888B2, “Methods of treating elevated plasma cholesterol” (INSTITUT DE CARDIOLOGIE DE MONTREAL, priority 2020, dated 2025).

How the values were obtained:
Biotinylated PCSK9 = Biotinylated PCSK9 (Homo sapiens (Human), UniProt Q8NBP7); test: Binding affinity of SHIM compounds to PCSK9 by surface plasmon resonance spectroscopy (Biacore T200); conditions: SPR, range tested 0.5-10 uM, 1:1 Langmuir model, NB = no binding detected in the tested range; for Kd: read-out: KD - equilibrium dissociation constant; for kon: read-out: ka - association rate constant; for koff: read-out: kd - dissociation rate constant
Sequence of Biotinylated PCSK9 (Q8NBP7 153-692): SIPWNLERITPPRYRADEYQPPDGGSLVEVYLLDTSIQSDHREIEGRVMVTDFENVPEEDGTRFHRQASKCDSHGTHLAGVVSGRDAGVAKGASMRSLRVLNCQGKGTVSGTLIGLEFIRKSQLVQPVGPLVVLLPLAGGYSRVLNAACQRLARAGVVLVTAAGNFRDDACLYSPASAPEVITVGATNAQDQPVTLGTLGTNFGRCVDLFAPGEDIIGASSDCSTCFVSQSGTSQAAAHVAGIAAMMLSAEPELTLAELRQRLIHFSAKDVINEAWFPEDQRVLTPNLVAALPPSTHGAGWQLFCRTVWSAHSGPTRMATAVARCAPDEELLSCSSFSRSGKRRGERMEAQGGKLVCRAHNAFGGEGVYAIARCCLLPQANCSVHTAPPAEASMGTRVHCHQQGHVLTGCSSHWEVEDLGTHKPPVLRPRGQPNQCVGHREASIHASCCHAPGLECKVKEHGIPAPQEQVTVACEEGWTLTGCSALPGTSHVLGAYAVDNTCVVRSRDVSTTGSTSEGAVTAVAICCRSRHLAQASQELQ
Experimental: Studies of SHIM compounds—PCSK9 interactions. […] Biotinylated PCSK9 (ACRO Biosystems) at 1 μg/mL has been captured on a chip on which streptavidin has been immobilized with amine-directed chemistry according to the manufacturer's instructions (6000 RU) to a density of 6000 RU in PBS-P ([…], 0.005% Tween 20, pH7.4) buffer with 1% DMSO. SHIMs at 10, 3.3, 1.1, 0.33 and 0.11 uM were injected at 30 uL/min. […] Double reference method of analysis was used with the reference channel containing a reference biotinylated protein captured at 6000 RU.

[1] = tested on: LDLR protein levels in HepG2 cells; test: Western blot analysis of relative LDLR protein levels in HepG2 cells after treatment; assay type: cell-based, human; conditions: HepG2 cells incubated overnight with compound, 0.2 μM to 20 μM
Experimental: Cell culture, treatments and cell viability assay. For phenotypic screening of PCSK9 modulators and/or LDLR small molecule inducers, human HepG2 cells were incubated overnight in conditioned media containing chemical compounds resuspended in DMSO at concentration ranging from 0.2 μM to 20 μM. […] Following incubation, media have been replaced and cells incubated for 4 h with 100 μL of phenol red-free DMEM containing 0.5 mg/mL of MTT (3-[4,5-dimethylthiazol-2-yl]-2,5-diphenyltetrazolium bromide; thiazolyl blue; catalog no. M5655, Sigma-Aldrich), following manufacturer's instructions.
Western Blot Analysis, Immunocytochemistry and LDLR Activity Assay. Following incubation, cells were washed three times in phosphate-buffered saline (PBS) and lysed in radioimmune precipitation assay buffer (50 mM Tris/HCl, pH 8.0, 1% (v/v) Nonidet P-40, 0.5% sodium deoxycholate, 150 mM NaCl, and 0.1% (v/v) SDS) supplemented with a complete protease inhibitor mixture (catalog no. 11 697 498 001, Roche Applied Science). Proteins were separated by SDS polyacrylamide gel electrophoresis, blotted on nitrocellulose membranes (Bio-Rad), blocked incubated with indicated antibodies as described (Poirier S, et al., Cell Rep, 2015). For immunocytochemistry analysis, cells were permeabilized or not with 0.1% Triton X-100/PBS for 10 min, and incubated with 150 mM glycine, blocked and incubated with indicated primary and secondary antibodies. Immunofluorescence analyses were performed with an Olympus FluoView FV10i confocal microscope (Poirier et al., Cell Rep. 2015; 13(10):2064-2071). For LDLR activity assay, HepG2 cells were incubated overnight without or with a given compound in the presence of 5 μg/ml fluorescent labelled DiI-LDL (Alfa Aesar, Cat. #J65330) and co-stained for LDLR if applicable, as described (Poirier et al., J Biol Chem. 2009; 284(42):28856-28864). Immunofluorescence analyses were performed with an Olympus FluoView FV10i confocal microscope.

[2] = tested on: hypercholesterolemic C57BL/6 Pcsk9 KO mice; test: Efficacy and safety in hypercholesterolemic C57BL/6 Pcsk9 KO mice on Western diet, oral gavage; assay type: in vivo; conditions: 40 mg/kg/day oral gavage for 10 days
Excerpt: Animal studies. All animal studies were approved by the Montreal Heart Institute (MHI) Animal Care and Ethical committee. For in vivo proof-of-concept animal studies, wild-type C57BL/6 or Pcsk9 knockout male mice were fed on Western diet containing 48.5% w/w carbohydrate, 21.2% w/w fat, 17.3% w/w protein and 0.2% w/w cholesterol (catalog no. TD.88137, Envigo) for 14 days. Chemical compounds were mixed in DMSO/propylene glycol/water; 1:7:2 (v/v) and administered by oral gavage at 0 (vehicle) or 40 mg/kg/day for 10 days in mice on Western diet. Plasma lipoprotein cholesterol profiles were obtained from 100 μL of pooled plasma injected on a Superose 6 10/300 GL (catalog no. 17-5172-01, GE Life Sciences) and eluted with PBS at a flow rate of 0.1 mL per min at 4° C. mounted on a AKTA explorer system (GE Healthcare). Serum aspartate aminotransferase (AST), alanine transaminase (ALT), insulin, glucose and complete hematology tests were measured by the Montreal Heart Institute biochemical clinical chemistry platform according to manufacturer's recommendations.

Molecule	LDLR Fold (relative LDLR protein levels) [1]	other results
CC1(c2ccc3ccccc3c2)NC(=O)N(CC(=O)N2CCC(C(=O)Nc3ccccc3)CC2)C1=O (stereo not shown) [Compound 14, 1-[2-[4-methyl-4-(2-naphthyl)-2,5-dioxo-imidazolidin-1-yl]acetyl]-N-phenyl-piperidine-4-carboxamide]	2.0 ± 0.7 Fold	Kd (Biotinylated PCSK9): 13.8 µM; kon (Biotinylated PCSK9): 14500 M⁻¹ s⁻¹; koff (Biotinylated PCSK9): 0.19 s⁻¹
O=C(c1csc(-c2cccs2)n1)N1CCc2c([nH]c3ccccc23)C1c1ccccn1 (stereo not drawn) [Compound 26, 1-(2-pyridinyl)-2-{[2-(2-thienyl)-1,3-thiazol-4-yl]carbonyl}-2,3,4,9-tetrahydro-1H-beta-carboline]	1.9 ± 0.5 Fold	Kd (Biotinylated PCSK9): 11 µM; kon (Biotinylated PCSK9): 104000 M⁻¹ s⁻¹; koff (Biotinylated PCSK9): 1.14 s⁻¹; ALT [2]: 24 U/L; AST [2]: 67 U/L; Glucose [2]: 16.3 mmol/L; ΔBody Weight (D 10 − D 0) [2]: 99%; HDL-C ([2]; Western diet): 3.00 mmol/L; LDL-C (measured) ([2]; Western diet): 0.23 mmol/L; TC ([2]; Western diet): 3.03 mmol/L; TG ([2]; Western diet): 0.90 mmol/L; nonHDL-C ([2]; Western diet): 0.04 mmol/L; LDL-C (pooled plasma) (FPLC AUC) (Fold Change %) ([2]; pooled plasma FPLC): −61%
C[C@@]1(c2ccc3ccccc3c2)NC(=O)N(CC(=O)N2CCC(C(=O)N3CCCCCC3)CC2)C1=O (stereo in doubt) [Compound 16, 3-{2-[4-(azepane-1-carbonyl)piperidin-1-yl]-2-oxoethyl}-5-methyl-5-(naphthalen-2-yl)imidazolidine-2,4-dione]	2.1 ± 1.2 Fold	Kd (Biotinylated PCSK9): 3.88 µM; kon (Biotinylated PCSK9): 22800 M⁻¹ s⁻¹; koff (Biotinylated PCSK9): 0.09 s⁻¹
O=C([C@H]1CCCO1)N1CCN(c2nnc(-c3ccccc3)c3ccccc23)CC1 (stereo in doubt) [Compound 42, 1-[4-(oxolane-2-carbonyl)piperazin-1-yl]-4-phenylphthalazine]	0.6 Fold	–
CC[C@@H]1CCCCN1C(=O)CN1C(=O)N[C@@](C)(c2ccc3ccccc3c2)C1=O (stereo in doubt) [Compound 18, 3-[2-(2-ethylpiperidin-1-yl)-2-oxoethyl]-5-methyl-5-(naphthalen-2-yl)imidazolidine-2,4-dione]	1.4 ± 0.7 Fold	–
Cc1cccc(C(=O)N2CCC[C@H](Cn3cc(C(C)(C)N)nn3)C2)c1C (stereo in doubt) [Compound 50, 2-(1-{[1-(2,3-dimethylbenzoyl)piperidin-3-yl]methyl}-1H-1,2,3-triazol-4-yl)propan-2-amine]	1.1 Fold	–
COc1ccc2cc([C@]3(C)NC(=O)N(CC(=O)N4CCC[C@@H]5CCCC[C@@H]54)C3=O)ccc2c1 (stereo in doubt) [Compound 15, 3-[2-(decahydroquinolin-1-yl)-2-oxoethyl]-5-(6-methoxynaphthalen-2-yl)-5-methylimidazolidine-2,4-dione]	1.1 ± 0.6 Fold	–
3-(1,3-benzodioxol-5-yl)-1-[(1S)-1-(6-methylpyridin-2-yl)-1,3,4,9-tetrahydropyrido[3,4-b]indol-2-yl]propan-1-one [Compound 23]	1.2 Fold	–
CC1(c2ccc3ccccc3c2)NC(=O)N(CC(=O)N2CCCC(c3nc4ccccc4s3)C2)C1=O (stereo not shown) [Compound 12, 3-{2-[3-(1,3-benzothiazol-2-yl)piperidin-1-yl]-2-oxoethyl}-5-methyl-5-(naphthalen-2-yl)imidazolidine-2,4-dione]	1.8 ± 0.6 Fold	–
COc1ccccc1[C@H]1N=C(N2CCC(Cc3ccccc3)CC2)N=C2N=C(C)C=C(O)N21 (stereo in doubt) [Compound 52, 2-(4-benzylpiperidin-1-yl)-4-(2-methoxyphenyl)-8-methyl-4H-pyrimido[1,2-a][1,3,5]triazin-6-ol]	0.7 Fold	–
CC1=NC2=NC(N3CCC(Cc4ccccc4)CC3)=N[C@H](c3ccccc3)N2C(O)=C1 (stereo in doubt) [Compound 30, 2-(4-benzylpiperidin-1-yl)-8-methyl-4-phenyl-4H-pyrimido[1,2-a][1,3,5]triazin-6-ol]	0.6 Fold	–
Cc1cccc(C2c3[nH]c4ccccc4c3CCN2C(=O)CCCN2CCCCC2=O)n1 (stereo not shown) [Compound 28, 1-{4-[1-(6-methylpyridin-2-yl)-1H,2H,3H,4H,9H-pyrido[3,4-b]indol-2-yl]-4-oxobutyl}piperidin-2-one]	1.0 Fold	–
COc1ccccc1[C@H]1N=C(N2CCN(c3cccc(Cl)c3)CC2)N=C2N=C(C)C=C(O)N21 [Compound 33, 2-[4-(3-chlorophenyl)piperazin-1-yl]-4-(2-methoxyphenyl)-8-methyl-1,4-dihydro-6H-pyrimido[1,2-a][1,3,5]triazin-6-ol]	1.0 Fold	–
O=C(CN1CCN(c2nnc(-c3ccccc3)c3ccccc23)CC1)N1CCCC1 [Compound 35, 2-[4-(4-phenylphthalazin-1-yl)piperazin-1-yl]-1-(pyrrolidin-1-yl)ethan-1-one]	0.9 Fold	–
Cc1cccc([C@@H]2c3[nH]c4ccccc4c3CCN2C(=O)CCN2CCCCC2=O)n1 (stereo in doubt) [Compound 20, 1-{3-[1-(6-methylpyridin-2-yl)-1H,2H,3H,4H,9H-pyrido[3,4-b]indol-2-yl]-3-oxopropyl}piperidin-2-one]	1.4 Fold	–
COc1cc(C(=O)N2CCC[C@H](CNS(=O)(=O)c3cccs3)C2)c2ccccc2n1 (stereo in doubt) [Compound 48, N-{[1-(2-methoxyquinoline-4-carbonyl)piperidin-3-yl]methyl}thiophene-2-sulfonamide]	1.0 Fold	–
O=C(Nc1ccccc1)[C@H]1CCCN(C(=O)c2cc(-c3ccncc3)nc3ccccc23)C1 (stereo in doubt) [Compound 46, N-phenyl-1-[2-(pyridin-4-yl)quinoline-4-carbonyl]piperidine-3-carboxamide]	1.1 Fold	–
Cc1ccc(-c2cc(C(=O)N3CCc4c([nH]c5ccccc45)C3c3ccccn3)[nH]n2)s1 (stereo not drawn) [Compound 25, 2-{[3-(5-methyl-2-thienyl)-1H-pyrazol-5-yl]carbonyl}-1-(2-pyridinyl)-2,3,4,9-tetrahydro-1H-beta-carboline]	1.1 Fold	–
O=C(Nc1ccccc1)[C@H]1CCCN(C(=O)c2cc(C3CC3)nc3ccccc23)C1 (stereo in doubt) [Compound 45, 1-(2-cyclopropylquinoline-4-carbonyl)-N-phenylpiperidine-3-carboxamide]	1.2 Fold	–
CC1(c2ccc3ccccc3c2)NC(=O)N(CC(=O)N2CCCCC2c2nc3ccccc3s2)C1=O (stereo not shown) [Compound 11, 3-{2-[2-(1,3-benzothiazol-2-yl)piperidin-1-yl]-2-oxoethyl}-5-methyl-5-(naphthalen-2-yl)imidazolidine-2,4-dione]	1.5 ± 0.4 Fold	–
CC(=O)N1CCC2(CC1)CC(=O)c1ccc(OCC(=O)N3CCc4ccccc43)cc1O2 [Compound 6, 1′-acetyl-7-[2-(2,3-dihydro-1H-indol-1-yl)-2-oxoethoxy]-3,4-dihydrospiro[1-benzopyran-2,4′-piperidin]-4-one]	0.8 ± 0.3 Fold	–
